Results: the supplement of paper PMC8253809

Assays:
DIPGX29 [1] = H3.3 K27M diffuse intrinsic pontine glioma line; experiment: area under dose-response curve of % growth inhibition (log2 RLU vs DMSO / staurosporine), 1e-11 to 1e-4 M (% x log10 M); higher = more growth inhibition
Procedure, shortened: (§1)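 Patient-derived pHGG/DIPG cell lines and astrocytes were plated in 384-well plates coated with 1% Geltrex and treated in triplicate with a 10-point threefold dilution series whose mean top concentration was 35 μM, for 7 days (3 days for iAstro) at 37 °C and 5% CO2. CellTiter-Glo luminescence was log2-transformed and scaled on each plate to % activity between solvent and positive controls. Area under the curve came from the trapezoid rule applied to a fitted log-logistic curve, or to a smoothing spline where the sigmoid fit failed.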

HGGX6 [2] = H3.3 G34R paediatric high-grade glioma line; experiment: as above
Procedure, shortened: as §1

HGGX2 = paediatric high-grade glioma line; experiment: as above
Procedure, shortened: as §1

DIPGX7 = H3.3 K27M diffuse intrinsic pontine glioma line; experiment: as above
Procedure, shortened: as §1

SUDIPGXIII = diffuse intrinsic pontine glioma line; experiment: as above
Procedure, shortened: as §1

DIPGX9 = diffuse intrinsic pontine glioma line; experiment: as above
Procedure, shortened: as §1

HGGX42 = H3.3 G34R paediatric high-grade glioma line; experiment: as above
Procedure, shortened: as §1

SUDIPGVI = diffuse intrinsic pontine glioma line; experiment: as above
Procedure, shortened: as §1

SUDIPGXIX = diffuse intrinsic pontine glioma line; experiment: as above
Procedure, shortened: as §1

SUDIPGIV = diffuse intrinsic pontine glioma line; experiment: as above
Procedure, shortened: as §1

HGGX39 [3] = paediatric high-grade glioma line; experiment: as above
Procedure, shortened: as §1

iAstro = astrocyte control; experiment: as above
Procedure, shortened: as §1

SUDIPGXVII = diffuse intrinsic pontine glioma line; experiment: as above
Procedure, shortened: as §1

DIPGX37 [4] = H3.3 K27M diffuse intrinsic pontine glioma line; experiment: as above
Procedure, shortened: as §1

HABS = astrocyte control; experiment: as above
Procedure, shortened: as §1

SUDIPGXXI [5] = diffuse intrinsic pontine glioma line; experiment: as above
Procedure, shortened: as §1

SUDIPGXXI [6] = experiment: EC50 (inflection of fitted growth-inhibition curve) (log10 M)
Procedure, shortened: (§2)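 Treatment used a pin tool and a 10-point threefold dilution series, mean top concentration 35 μM, run in triplicate on patient-derived pHGG/DIPG cell lines and astrocyte controls in 1% Geltrex-coated 384-well plates. Plates were kept at 37 °C, 5% CO2 for 7 days (iAstro: 3 days). Log2-transformed CellTiter-Glo luminescence was scaled per plate to % activity between negative (solvent) and positive control wells and pooled before fitting. EC50 and maximal response (yFin) came from the three- or four-parameter log-logistic fit chosen by lowest AICc.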

SUDIPGXXI [7] = experiment: maximal growth inhibition (yFin) relative to DMSO / staurosporine; higher = more efficacious
Procedure, shortened: as §2

DIPGX29 [8] = experiment: EC50 (inflection of fitted growth-inhibition curve) (log10 M)
Procedure, shortened: as §2

HGGX6 [9] = experiment: as above
Procedure, shortened: as §2

HGGX39 [10] = experiment: as above
Procedure, shortened: as §2

DIPGX37 [11] = experiment: as above
Procedure, shortened: as §2

DIPGX29 [12] = experiment: maximal growth inhibition (yFin) relative to DMSO / staurosporine; higher = more efficacious
Procedure, shortened: as §2

HGGX6 [13] = experiment: as above
Procedure, shortened: as §2

HGGX39 [14] = experiment: as above
Procedure, shortened: as §2

DIPGX37 [15] = experiment: as above
Procedure, shortened: as §2

Row | Compound | area under dose-response curve (DIPGX29 [1]) | area under dose-response curve (HGGX6 [2]) | area under dose-response curve (HGGX2) | area under dose-response curve (DIPGX7) | area under dose-response curve (SUDIPGXIII) | area under dose-response curve (DIPGX9) | area under dose-response curve (HGGX42) | area under dose-response curve (SUDIPGVI) | area under dose-response curve (SUDIPGXIX) | area under dose-response curve (SUDIPGIV) | area under dose-response curve (HGGX39 [3]) | area under dose-response curve (iAstro) | area under dose-response curve (SUDIPGXVII) | area under dose-response curve (DIPGX37 [4]) | area under dose-response curve (HABS) | area under dose-response curve (SUDIPGXXI [5]) | EC50 (log10 M) (SUDIPGXXI [6]) | maximal growth inhibition (SUDIPGXXI [7]) [%] | EC50 (log10 M) (DIPGX29 [8]) | EC50 (log10 M) (HGGX6 [9]) | EC50 (log10 M) (HGGX39 [10]) | EC50 (log10 M) (DIPGX37 [11]) | maximal growth inhibition (DIPGX29 [12]) [%] | maximal growth inhibition (HGGX6 [13]) [%] | maximal growth inhibition (HGGX39 [14]) [%] | maximal growth inhibition (DIPGX37 [15]) [%]
1 | CC(C)[C@H]1C(=O)N[C@@H](CCCNC(=N)N)C(=O)NCC(=O)N[C@@H](CC(=O)O)C(=O)N[C@H](Cc2ccccc2)C(=O)N1C [CILENGITIDE] | 10.1 | 2.93 | 8.33 | 15.6 | 0 | 8.99 | 11.4 | 0 | 0 | 4.77 | 4.22 | 0 | 4.38 | 4.08 | 3.86 | 1.67 |  |  |  |  |  |  |  |  |  | 
2 | CC(C)(C)c1nc(-c2cccc(NS(=O)(=O)c3c(F)cccc3F)c2F)c(-c2ccnc(N)n2)s1 [DABRAFENIB] | 3.8 | 21.9 | 0 | 20.8 | 0.214 | 3.09 | 7.39 | 2.65 | 0 | 18.7 | 25.7 | 3.65 | 3.63 | 11.5 | 19.7 | 13.7 |  |  |  |  |  |  |  |  |  | 
3 | O=c1ncccn1[C@@H]1O[C@H](CO)[C@@H](O)[C@H]1O [ZEBULARINE] | 5.5 | 2.58 | 20 | 17.7 | 32.2 | 11.6 | 15.7 | 13.2 | 5.55 | 12 | 2.92 | 6.4 | 7.86 | 19.9 | 4.92 | 15.3 |  |  |  |  |  |  |  |  |  | 
4 | CC12CC3CC(C)(C1)CC(N)(C3)C2 [MEMANTINE] | 3.62 | 2.25 | 2.91 | 13.8 | 0 | 1.54 | 0.942 | 0 | 1.83 | 6.14 | 0.964 | 0.365 | 1.91 | 1.76 | 2.39 | 21.5 | -4.68 | 32.5 |  |  |  |  |  |  |  | 
5 | CO[C@H]1C(=O)[C@]2(C)[C@@H](OC)C[C@H]3OC[C@@]3(OC(C)=O)[C@H]2[C@H](OC(=O)c2ccccc2)[C@]2(O)C[C@H](OC(=O)[C@H](O)[C@@H](NC(=O)OC(C)(C)C)c3ccccc3)C(C)=C1C2(C)C [CABAZITAXEL] | 71.3 | 78.2 | 156 | 68.4 | 29.9 | 141 | 102 | 37.8 | 120 | 255 | 123 | 79.4 | 50.5 | 119 | 147 | 515 |  |  |  |  |  |  |  |  |  | 
6 | C[C@]1(c2nc3c(C(N)=O)cccc3[nH]2)CCCN1 [VELIPARIB] | 0 | 0 | 1.41 | 1.28 | 0 | 6.96 | 0 | 0 | 7.71 | 6.66 | 0 | 7.64 | 9.93 | 0 | 3.94 | 100 | -4.72 | 99.9 |  |  |  |  |  |  |  | 
7 | CCN(c1cc(-c2ccc(CN3CCOCC3)cc2)cc(C(=O)NCc2c(C)cc(C)[nH]c2=O)c1C)C1CCOCC1 [EPZ-6438] | 4.38 | 0 | 0 | 5.15 | 2.24 | 0 | 0 | 0 | 0.349 | 9.17 | 1.99 | 5.32 | 4.66 | 0 | 12.9 | 6.79 |  |  |  |  |  |  |  |  |  | 
8 | O=C(CCCCCCC(=O)Nc1ccccc1)NO [VORINOSTAT] | 77.5 | 83.9 |  |  |  |  |  |  |  |  | 60.1 |  |  | 58.2 |  |  |  |  | -4.98 | -4.68 | -4.71 | -4.65 | 74.2 | 76.9 | 64.3 | 68
9 | CC(C)/N=c1\cc2n(-c3ccc(Cl)cc3)c3ccccc3nc-2cc1Nc1ccc(Cl)cc1 [CLOFAZIMINE] | 76.3 | 65.3 |  |  |  |  |  |  |  |  | 79.8 |  |  | 84.9 |  |  |  |  | -5.16 | -4.91 | -4.88 | -4.91 | 54.4 | 71.5 | 90.6 | 83.8
10 | CCCCOc1ccc(C(=O)CCN2CCCCC2)cc1 [DYCLONINE] | 92.7 | 89.2 |  |  |  |  |  |  |  |  | 110 |  |  | 129 |  |  |  |  | -4.83 | -5.02 | -5.12 | -5.35 | 87.1 | 87.9 | 98.8 | 95.1
11 | COc1cc2c(cc1O)CC[C@@H]1[C@@H]2CC[C@]2(C)[C@@H](O)CC[C@@H]12 [2-METHOXYESTRADIOL] | 40.9 | 38.9 |  |  |  |  |  |  |  |  | 47.3 |  |  | 48.8 |  |  |  |  | -5.23 | -5.65 | -4.89 | -4.96 | 22.8 | 23.6 | 53 | 36.4
12 | N=C(N)c1ccc(OCCCCCOc2ccc(C(=N)N)cc2)cc1 [PENTAMIDINE] | 55.6 | 45.3 |  |  |  |  |  |  |  |  | 66.5 |  |  | 50 |  |  |  |  | -5.15 | -5.4 | -6.05 | -5.08 | 38.4 | 33.1 | 32.4 | 31.7
13 | CCn1c(=O)c(-c2ccc(Cl)cc2Cl)cc2cnc(Nc3ccc(N4CCNCC4)c(F)c3)nc21 [FRAX486] | 135 | 97.4 |  |  |  |  |  |  |  |  | 139 |  |  | 142 |  |  |  |  | -5.23 | -5.32 | -5.64 | -5.3 | 80.4 | 73.5 | 84.5 | 81
14 | CCN1CCN(c2cc(-c3ccc(F)cc3)c3c(n2)CCCCCC3)CC1 [BLONANSERIN] | 63.1 | 64.4 |  |  |  |  |  |  |  |  | 81.4 |  |  | 73.5 |  |  |  |  | -5.17 | -4.81 | -4.94 | -4.93 | 53.1 | 79.5 | 85.3 | 77.4
15 | CCCc1cc(C)[nH]c(=O)c1CNC(=O)c1cc(-c2ccc(N3CCN(C(C)C)CC3)nc2)cc2c1cnn2C(C)C [UNC1999] | 75 | 83.6 |  |  |  |  |  |  |  |  | 70.2 |  |  | 85.9 |  |  |  |  | -5.02 | -5.11 | -4.92 | -5.18 | 73.8 | 72.5 | 76.4 | 73.8
16 | Cc1nc(-c2cccnc2)sc1C(=O)Nc1ccccc1-c1cn2c(CN3CCOCC3)csc2n1 [SRT2104] | 79.7 | 80.8 |  |  |  |  |  |  |  |  | 60.9 |  |  | 101 |  |  |  |  | -5.16 | -5.21 | -4.84 | -5.24 | 69 | 67.3 | 72.4 | 68.5
17 | COc1cc2nc(N3CCCC3)nc(NCCCCCN3CCCC3)c2cc1OC [UNC0379] | 70.8 | 73.6 |  |  |  |  |  |  |  |  | 69.3 |  |  | 75.1 |  |  |  |  | -4.88 | -4.91 | -4.89 | -5.05 | 71.8 | 70.1 | 72.1 | 71.5
18 | C[C@@H](O[C@H]1OCCN(Cc2nn(P(=O)(O)O)c(=O)[nH]2)[C@H]1c1ccc(F)cc1)c1cc(C(F)(F)F)cc(C(F)(F)F)c1 [FOSAPREPITANT] | 63.6 | 47.1 |  |  |  |  |  |  |  |  | 66.7 |  |  | 70.6 |  |  |  |  | -4.84 | -4.84 | -4.81 | -4.83 | 60.6 | 56 | 82.4 | 69.8
19 | CS(=O)(=O)c1ccc(C(=O)Nc2ccc(Cl)c(-c3ccccn3)c2)c(Cl)c1 [VISMODEGIB] | 6.39 | 11.3 | 1.06 | 5.14 | 2.44 | 2.06 | 0.511 | 0 | 0 | 6.55 | 11.1 | 25.8 | 7.7 | 7.51 | 0 | 28.8 | -4.83 | 34.8 |  |  |  |  |  |  |  | 
20 | Cc1c(CN2CCC(Nc3ncnc4sc(CC(F)(F)F)cc34)CC2)ccc2c1cc(C#N)n2Cc1cn[nH]c1 [MI-503] | 92.6 | 83.9 |  |  |  |  |  |  |  |  | 84.8 |  |  | 70.7 |  |  |  |  | -4.9 | -4.9 | -5.14 | -4.98 | 74 | 71.9 | 74.2 | 72.1
21 | CS(=O)(=O)CCNCc1ccc(-c2ccc3ncnc(Nc4ccc(OCc5cccc(F)c5)c(Cl)c4)c3c2)o1 [LAPATINIB] | 70.3 | 57.8 |  |  |  |  |  |  |  |  | 55 |  |  | 72.5 |  |  |  |  | -4.72 | -4.69 | -4.71 | -4.7 | 76.7 | 76.8 | 76.9 | 78.4
